# Several values for one entry are separate records, joined by “and”; a condition that tells them apart may be missing. Identical values can stand only once. Like-named read-outs stand apart in the source and are kept apart here. Marks after values point to notes of the source that are not given here.
# Experiments:
# porcine stomach (cardia) = conditions: 10 mM donor solution
# [1] = test system: reparative liver regeneration after partial hepatectomy
# Text: Reparative liver regeneration was caused by the removal of ⅔ mass of the organ—partial hepatectomy by G. M. Higgis, R. M. Anderson.
# macrophages = conditions: cited from earlier work
# [2] = test system: liver after introduction of carrageenan; conditions: for ALT, units/l / AST, units/l: carrageenan + Tamerit
# Procedure: The experiments were carried out on 25 male Wistar rats weighing 200-220 g, in accordance with the recommendations of the international ethics committees on the humane treatment of laboratory animals (EU Council Directive 86/609 EEC dated Nov. 24, 1986). […] Its mechanism of action is based on the inhibition of the process of phagocytosis and the activity of lysosomal hydrolases of mononuclear phagocytes. The drug was administered intragastrically through a probe in an aqueous solution at a dose of 10 mg/kg. The choice of time frame (4, 17 hours after surgery) corresponds to the phases of liver regeneration.
# PHMG poisoning = experiment: Acute hepatitis caused by alcohol substitute PHMG in rats
# Procedure: The experiment was carried out on 25 male white outbred rats weighing 200-300 g, in accordance with the recommendations of the international ethics committees on the humane treatment of laboratory animals (EU Council Directive 86/609 EEC dated Nov. 24, 1986). To create an experimental model, an aqueous solution of PHMG was used, which was administered intraperitoneally at a dose of 50 mg/100 g.
# [3] = test system: toxic hepatitis caused by Acetaminophen; conditions: for ALT / AST / AST/ALT / GTP / Biochemiluminescence of blood plasma (BCL, quant): Acetaminophen + Tamerit
# Procedure: The experiment was carried out on 45 adult male outbred white rats weighing 288.5±12.9 g, in accordance with the recommendations of the international ethics committees on the humane treatment of laboratory animals (EU Council Directive 86/609 EEC dated Nov. 24, 1986). To create an experimental model, an aqueous solution of Acetaminophen was administered intragastrically using a probe at a dosage of 110 mg/kg of body weight, which is about 2 times higher than the maximum allowable daily dose in humans. […] The drug was administered intragastrically, using a probe, in the form of an aqueous solution
# [4] = test system: hepatitis caused by pesticides
# Text: Clinically, this is manifested by pallor, fatigue, shortness of breath on exertion, hypoxia of the organs, respectively, and of the organism as a whole. The lipid peroxidation that develops at the same time causes tissue damage, and in response, macrophages infiltrate and generate oxygen radicals and pro-inflammatory cytokines (TNF, IL, etc.), thereby contributing their destructive potential to the development of the pathological process.
# [5] = test system: Toxic hepatopathy degree II
# Procedure: The patient received standard hepatic therapy: Duphalac 50 ml 3 times a day, Hepasol A 1000 ml, Heptral 800 mg. Detoxification therapy was carried out. […] The patient was monitored for another 1 month in a poison center.
# [6] = test system: porcine large intestine (colon); experiment: Porcine large intestine permeability, Franz cell; conditions: for concentration in receptor comp, large intestine, AVG / concentration in receptor compartment, large intestine: 10 mM donor solution; for concentration in receptor compartment, large intestine: single chambers
# Procedure: The intestine was prepared so the mucous side will be facing the donor compartment.
# [7] = PHMG 3 days + Tamerit intraperitoneally
# [8] = PHMG 7 days + Tamerit intraperitoneally
# [9] = per os, enteric coated tablets, with standard hepatic therapy
compound,measurement,setting,value
"Nc1cccc2c(=O)[n-][nH]c(=O)c12.[Na+] [Tamerit, aminodihydrophthalazinedione sodium]","concentration in receptor compartment, Tamerit stomach, AVG",porcine stomach (cardia); 0 min,0 ng/mL
same,"concentration in receptor compartment, Tamerit stomach","porcine stomach (cardia); 0 min, single chambers",0 ng/mL
same,"concentration in receptor compartment, Tamerit stomach, AVG",porcine stomach (cardia); 15 min,50 ng/mL
same,"concentration in receptor compartment, Tamerit stomach, AVG",porcine stomach (cardia); 30 min,41 ng/mL
same,"concentration in receptor compartment, Tamerit stomach, AVG",porcine stomach (cardia); 45 min,69 ng/mL
same,"concentration in receptor compartment, Tamerit stomach, AVG",porcine stomach (cardia); 90 min,85 ng/mL
same,"concentration in receptor compartment, Tamerit stomach, AVG",porcine stomach (cardia); 120 min,104 ng/mL
same,"Mitotic index, %",[1]; hepatectomy 4 hours + Tamerit,2 ± 0.8 %
same,Nuclear cytoplasmic index,[1]; hepatectomy 4 hours + Tamerit,0.40 ± 0.005
same,"Number of binuclear cells, %",[1]; hepatectomy 4 hours + Tamerit,16.6 ± 1.69%
same,"The size of the nucleus of hepatocytes, μm",[1]; hepatectomy 4 hours + Tamerit,8.0 ± 0.26 μm
same,"Mitotic index, %",[1]; hepatectomy 17 hours + Tamerit,5.5 ± 1.3 %
same,Nuclear cytoplasmic index,[1]; hepatectomy 17 hours + Tamerit,0.319 ± 0.01
same,"Number of binuclear cells, %",[1]; hepatectomy 17 hours + Tamerit,29.83 ± 2.5 %
same,"The size of the nucleus of hepatocytes, μm",[1]; hepatectomy 17 hours + Tamerit,7.67 ± 0.28 μm
same,increase of the number of hepatocytes that divide by mitosis,[1]; regenerating liver,by an order of magnitude
same,state of a solution containing 10 mM,,supersaturated solution
same,duration of reversible suppression of macrophage hyperactivity,macrophages; acute inflammatory diseases,10 to 12 h
same,excretion,macrophages,rapidly excreted
same,toxicity,macrophages,extremely low toxicity
same,"Mitotic index, %",[2]; Carrageenan 4 hours + Tamerit,0.65 ± 0.25 %
same,Nuclear cytoplasmic index,[2]; Carrageenan 4 hours + Tamerit,0.36 ± 0.01
same,"Number of binuclear cells, %",[2]; Carrageenan 4 hours + Tamerit,25.0 ± 3.58 %
same,"Mitotic index, %",[2]; Carrageenan 17 hours + Tamerit,0.48 ± 0.12 %
same,Nuclear cytoplasmic index,[2]; Carrageenan 17 hours + Tamerit,0.35 ± 0.02
same,"Number of binuclear cells, %",[2]; Carrageenan 17 hours + Tamerit,29.2 ± 4.18 %
same,activity of aminotransferases,[2]; after carrageenan,completely restores the activity of aminotransferases to the parameters of healthy animals
same,"ALT, units/l",[2]; 4 hours,40.2 ± 4.0 units/l
same,"AST, units/l",[2]; 4 hours,85.4 ± 8.0 units/l
same,"ALT, units/l",[2]; 17 hours,42.2 ± 3.5 units/l
same,"AST, units/l",[2]; 17 hours,83.5 ± 4.5 units/l
same,degree of hepatocyte destruction,PHMG poisoning; 7th day after PHMG,minimal
same,"ALT, U/L",PHMG poisoning; PHMG 3rd day + Tamerit,5.7 ± 1.9 U/L
same,"AST, U/L",PHMG poisoning; PHMG 3rd day + Tamerit,11.3 ± 0.6 U/L
same,"GTP, U/L",PHMG poisoning; PHMG 3rd day + Tamerit,17.5 ± 2.0 U/L
same,"ALT, U/L",PHMG poisoning; PHMG 7th day + Tamerit,8.1 ± 0.2 U/L
same,"AST, U/L",PHMG poisoning; PHMG 7th day + Tamerit,12.1 ± 0.3 U/L
same,"GTP, U/L",PHMG poisoning; PHMG 7th day + Tamerit,26.0 ± 3.4 U/L
same,"Binuclear cells, %",PHMG poisoning; [7],65.12 ± 0.14 %
same,"Mitotic index, %",PHMG poisoning; [7],38.26 ± 0.18 %
same,"Binuclear cells, %",PHMG poisoning; [8],61.18 ± 0.24 %
same,"Mitotic index, %",PHMG poisoning; [8],45.6 ± 0.14* ** %
same,ALT,[3]; 3rd day,17.45 ± 1.3 U/L
same,AST,[3]; 3rd day,23.61 ± 1.2 U/L
same,AST/ALT,[3]; 3rd day,1.35 ± 0.03
same,GTP,[3]; 3rd day,35.8 ± 1.2 U/L
same,ALT,[3]; 5th day,12.2 ± 0.9 U/L
same,AST,[3]; 5th day,15.0 ± 1.0 U/L
same,AST/ALT,[3]; 5th day,1.24 ± 0.01
same,GTP,[3]; 5th day,33.8 ± 0.9 U/L
same,ALT,[3]; 7th day,12.0 ± 0.8 U/L
same,AST,[3]; 7th day,16.01 ± 2.0 U/L
same,AST/ALT,[3]; 7th day,1.33 ± 0.02
same,GTP,[3]; 7th day,30.8 ± 1.8 U/L
same,ALT,[3]; 12th day,18.0 ± 1.8 U/L
same,AST,[3]; 12th day,22.1 ± 1.5 U/L
same,AST/ALT,[3]; 12th day,1.22 ± 0.04
same,GTP,[3]; 12th day,29.4 ± 1.5 U/L
same,"Biochemiluminescence of blood plasma (BCL, quant)",[3]; 3 days,213.0 ± 4.0 quant
same,"Biochemiluminescence of blood plasma (BCL, quant)",[3]; 12 days,215.6 ± 5.0 quant
same,signs of toxic hepatitis,[3]; rats treated with Tamerit intragastrically,less pronounced
same,AST and ALT,"[4]; after the end of treatment, AST-80, ALT-98 before",within normal limits
same,Hemoglobin,"[4]; at discharge after enteric-coated 100 mg tablets, 89 before",120
same,patient's condition,[4]; third day from the start of treatment,improved
same,adverse effects,[5]; during the use of Tamerit,no adverse effects were noted
same,blood biochemical parameters,[5]; [9],fully normalized
same,relief of symptoms of intoxication,[5]; [9],highly effective
same,"permeability through large intestine tissue, in words",[6],good permeability
same,"concentration in receptor comp, large intestine, AVG",[6]; 0 min,0 ng/mL
same,"concentration in receptor compartment, large intestine",[6]; 0 min,0 ng/mL
same,"concentration in receptor comp, large intestine, AVG",[6]; 30 min,5000 ng/mL
same,"concentration in receptor comp, large intestine, AVG",[6]; 60 min,7000 ng/mL
same,"concentration in receptor comp, large intestine, AVG",[6]; 120 min,17000 ng/mL
same,"concentration in receptor comp, large intestine, AVG",[6]; 240 min,35000 ng/mL
same,"concentration in receptor compartment, large intestine","[6]; 240 min, sodium",30600 ng/mL and 25000 ng/mL and 36400 ng/mL and 49000 ng/mL
same,"concentration in receptor comp, large intestine, AVG",[6]; 360 min,48000 ng/mL
same,"concentration in receptor comp, large intestine, AVG",[6]; 720 min,90000 ng/mL
same,time to reach steady state of permeation,[6]; large intestinal tissue,four
same,"Recovery from donor comp, %","[6]; large intestine, 0 min",0.00%
same,mg in receptor comp,"[6]; large intestine, 0 min",0.000 mg
same,"Recovery from donor comp, %","[6]; large intestine, 30 min",0.45%
same,mg in receptor comp,"[6]; large intestine, 30 min",0.026 mg
same,"Recovery from donor comp, %","[6]; large intestine, 60 min",0.63%
same,mg in receptor comp,"[6]; large intestine, 60 min",0.036 mg
same,"Recovery from donor comp, %","[6]; large intestine, 120 min",1.46%
same,mg in receptor comp,"[6]; large intestine, 120 min",0.084 mg
same,"Recovery from donor comp, %","[6]; large intestine, 240 min",3.07%
same,mg in receptor comp,"[6]; large intestine, 240 min",0.176 mg
same,"Recovery from donor comp, %","[6]; large intestine, 360 min",4.20%
same,mg in receptor comp,"[6]; large intestine, 360 min",0.242 mg
same,Tamerit Permeability vs Propranolol Permeability,"[6]; large intestine, FIG. 11",permeates better than propranolol
same,permeation compared with Propranolol,"[6]; large intestine, after 4 hours",as good as Propranolol

# Reference: patent US20210379063A1, “ORAL AMINODIHYDROPHTHALAZINEDIONE COMPOSITIONS AND THEIR USE IN THE TREATMENT OF NON-VIRAL HEPATITIS” (Immunopharma Plus D.O.O., priority 2018, published 2021)
